In US20080242724A1, “Ibopamine Maleate, Method for Preparing it and Pharmaceutical Compositions Containing It” (AZIENDE CHIM. RIUN. ANG. FRANC. A.C.R.A.F. S.P.A., priority 2004, published 2008):
Where a name gives a salt, the structure may show the parent alone.

Test system: male rabbits (New Zealand White)
Test: Ocular tolerability (Draize) after repeated instillation
Assay type: in vivo, rabbit
Settings: for Conjunctiva Lachrymation / Conjunctiva Reddening / Conjunctiva Swelling / Cornea Area of the cornea affected by opacity / Cornea Opacity / Iris: Draize score; for Conjunctiva Lachrymation / Conjunctiva Reddening / Conjunctiva Swelling / Cornea Area of the cornea affected by opacity / Cornea Opacity / Iris / Total Score: rabbit eye, 0.1 ml aqueous solution (corresponding to 1.79% by weight of ibopamine, pH 7.0) three times a day for fifteen days; for Total Score: sum of Draize scores; for local tolerability: compared with the hydrochloride, statement in words
Description: Two aqueous solutions were used.
The first contained 2% by weight of ibopamine hydrochloride (corresponding to 1.79% by weight of ibopamine) buffered to pH 7.0.
The second contained 2.46% by weight of ibopamine maleate (corresponding to 1.79% by weight of ibopamine) buffered to pH 7.0.
12 male rabbits (New Zealand White) with an average weight of 2 kg and an average age of ten months were used, divided into two groups of six rabbits each. The first group was treated with 0.1 ml of the first test solution three times a day for fifteen days. The second group was treated with 0.1 ml of the second test solution three times a day for fifteen days.
The tolerability was evaluated according to J. Draize et al., Pharmacol. Exp. Ther., 83, 377-390 (1944).

Molecule | Conjunctiva Lachrymation | Conjunctiva Reddening | Conjunctiva Swelling | Cornea Area of the cornea affected by opacity | Cornea Opacity | Iris | Total Score | local tolerability (listed as ibopamine maleate) | local tolerability (listed as maleate)
CNCCc1ccc(OC(=O)C(C)C)c(OC(=O)C(C)C)c1 [Ibopamine hydrochloride, ibopamine hydrochloride, reference compound] | 2 | 1 | 1 | 2 | 1 | 1 | 8 | – | –
ibopamine maleate (1:1) | 1 | 1 | 0 | 1 | 0 | 0 | 3 | better local tolerability | better local tolerability than the hydrochloride
